Key:
[1] = Comparative UV spectrophotometric analysis before and after formation of microspheres; type: physicochemical; details: starting materials (crystals) vs microspheres obtained by spray-freezing; ethanol for 17-beta-estradiol and cholesterol, 0.1N HCl for the others
Description: (§1) It is necessary to check that no chemical damage of the substances occurs during the spray-freezing process, which could modify their therapeutic properties. The starting materials (crystals) and the microspheres obtained by spray-freezing are compared by UV and IR spectrophotometry. UV spectras shall always be superimposable and IR spectras shall correspond. If differences in infrared spectras appear, it shall be checked if they are due to a polymorphism phenomenon, by means of an HPLC setup with diode-array detection. Differential thermal analysis is also used, not only to check the melting points, but also to determine if endothermic or exothermic transitions occur, due either to structure modifications or to a polymorphism, which may influence the microsphere information process, or due to heat-induced chemical reactions.
Equipment used in ultraviolet spectrography: Hewlett Packard model 8452A with photodiode arrangement and quartz cell with a beam of 0.1 cm.

[2] = Differential thermal analysis (DSC); details: Shimadzu DSC 50 calorimeter
Description: as §1
Thermal analysis: Shimadzu DSC 50 calorimeter and CR4A workstation.

[3] = Comparative infrared spectrophotometry (FT-IR, with HPLC diode-array) before and after formation of microspheres; type: physicochemical; details: after the formation of microspheres; potassium bromide dispersion
Description: as §1
Equipment used in infrared spectrophotometry: Nicolet 205 FT-IR. Dispersion medium: potassium bromide. Chromatography: HPLC device with photo diode-array detector, model Waters 990 and Nec powermate 2 workstation.

[4] = general statement, no test described; cited from earlier work

SMILES | chemical modification by UV spectrophotometry [1] | degradation on differential thermograms [2] | chemical modification by infrared spectrophotometry [3] | solubility in water [4]
C[C@]12CC[C@@H]3c4ccc(O)cc4CC[C@H]3[C@@H]1CC[C@@H]2O [17-beta-estradiol] | no trace of modification | no degradation | no modification | 
CCCC[N+]1(C)C2CC(OC(=O)C(CO)c3ccccc3)CC1C1OC12 (centres unmarked) [butylhioscine bromide] | no trace of modification |  | produces chemical modifications | 
Cn1c(=O)c2c(ncn2C)n(C)c1=O [caffeine] | no trace of modification | no degradation |  | 
CC(C)CCC[C@@H](C)[C@H]1CC[C@H]2[C@@H]3CC=C4C[C@@H](O)CC[C@]4(C)[C@H]3CC[C@]12C [cholesterol] | no trace of modification |  | no modification | 
CN1C(=O)CN=C(c2ccccc2)c2cc(Cl)ccc21 [diazepam] |  | no degradation |  | 
CCN(CC)CCNC(=O)c1cc(Cl)c(N)cc1OC [methoclopramide] |  |  |  | freely soluble in water
